Data taken from the supplement of paper PMC10657565.
± gives the uncertainty stated by the source.

Assays:
Assay in all cases: relative cell viability vs DMSO control (% of DMSO control); higher = less growth inhibition (higher viability)
Details in all cases: treatment time: 72 h
SKBR3 = test system: SKBR3
Experimental: (§1)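 Breast cancer cell lines (BT-474, HCC1806, SUM-159, SKBR-3) were seeded in triplicate in 96-well plates and treated 24 h after seeding with kinase inhibitors at 8 doses (3 nM to 30 uM). After 72 h, viability was read by CellTiter-Glo luminescence. Values were averaged over replicates and normalised to DMSO-only (0.1%) controls on each plate to give relative viability (% of DMSO).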

BT-474 = test system: BT-474
Experimental: as §1

SUM159 = test system: SUM159
Experimental: as §1

HCC1806 = test system: HCC1806
Experimental: as §1

| SMILES | relative cell viability (SKBR3; 0.003 µM) | relative cell viability (SKBR3; 0.01 µM) | relative cell viability (SKBR3; 0.03 µM) | relative cell viability (SKBR3; 0.1 µM) | relative cell viability (SKBR3; 0.3 µM) | relative cell viability (SKBR3; 1 µM) | relative cell viability (SKBR3; 3 µM) | relative cell viability (SKBR3; 30 µM) | relative cell viability (BT-474; 0.003 µM) | relative cell viability (BT-474; 0.01 µM) | relative cell viability (BT-474; 0.03 µM) | relative cell viability (BT-474; 0.1 µM) | relative cell viability (BT-474; 0.3 µM) | relative cell viability (BT-474; 1 µM) | relative cell viability (BT-474; 3 µM) | relative cell viability (BT-474; 30 µM) | relative cell viability (SUM159; 0.003 µM) | relative cell viability (SUM159; 0.01 µM) | relative cell viability (SUM159; 0.03 µM) | relative cell viability (SUM159; 0.1 µM) | relative cell viability (SUM159; 0.3 µM) | relative cell viability (SUM159; 1 µM) | relative cell viability (SUM159; 3 µM) | relative cell viability (SUM159; 30 µM) | relative cell viability (HCC1806; 0.003 µM) | relative cell viability (HCC1806; 0.01 µM) | relative cell viability (HCC1806; 0.03 µM) | relative cell viability (HCC1806; 0.1 µM) | relative cell viability (HCC1806; 0.3 µM) | relative cell viability (HCC1806; 1 µM) | relative cell viability (HCC1806; 3 µM) | relative cell viability (HCC1806; 30 µM) |
| --- | --- | --- | --- | --- | --- | --- | --- | --- | --- | --- | --- | --- | --- | --- | --- | --- | --- | --- | --- | --- | --- | --- | --- | --- | --- | --- | --- | --- | --- | --- | --- | --- |
| COCCN1CCN(Cc2ccc(-c3n[nH]c4c3C(=O)c3c(NC(=O)NN5CCOCC5)cccc3-4)cc2)CC1 | 84.2 ± 3.5 | 71 ± 7.2 | 50 ± 7 | 18.1 ± 8.7 | 8.06 ± 0.7 | 7.43 ± 0.26 | 5.73 ± 0.075 | 0.827 ± 0.17 | 97.7 ± 4.1 | 86 ± 3.1 | 66.7 ± 7 | 64.5 ± 6.1 | 69.8 ± 8.4 | 70.8 ± 15 | 75.2 ± 7.9 | 11.2 ± 0.36 | 97.1 ± 6.1 | 60.4 ± 30 | 14.3 ± 16 | 7.11 ± 1 | 8.54 ± 0.38 | 9.97 ± 0.5 | 7.7 ± 0.38 | 0.538 ± 0.063 | 96.5 ± 1.7 | 83.3 ± 2.7 | 42.8 ± 16 | 11.7 ± 1.4 | 9.5 ± 1.1 | 9.2 ± 0.52 | 9.82 ± 0.46 | 2.82 ± 1.3 |
| COC(=O)[C@@]1(O)C[C@H]2O[C@]1(C)n1c3ccccc3c3c4c(c5c6ccccc6n2c5c31)C(=O)NC4 [K-252a] | 92.4 ± 4.2 | 90.4 ± 2 | 87.8 ± 4.2 | 81.8 ± 3.8 | 69.2 ± 4.8 | 54.3 ± 1.9 | 40 ± 2.8 | 1.88 ± 0.54 | 113 ± 7.6 | 106 ± 6.3 | 99.6 ± 7.7 | 91.6 ± 6.8 | 81.3 ± 4.5 | 58.9 ± 7.6 | 21.3 ± 4.6 | 1.44 ± 0.18 | 68.7 ± 6.9 | 63.8 ± 1.2 | 72.2 ± 3 | 34.7 ± 9.7 | 12.9 ± 2.6 | 6.47 ± 1.4 | 4.82 ± 0.85 | 2.12 ± 0.57 | 91.4 ± 5.5 | 81.8 ± 5.3 | 75.8 ± 6.2 | 62.3 ± 13 | 26.1 ± 8.3 | 13 ± 1.5 | 5.96 ± 2.1 | 0.762 ± 0.15 |
